Experimental data from patent US7763596B2, “Selective glucocorticoid receptor agonists” (The University of Manchester, priority 2000, dated 2010).

What was measured:
IL-8 = experiment: Repression of endogenous IL-8 in A549s; format: cell-based, human; settings: A549 cells; compound G at 100 nM, p=0.0076
Description: (§1) The A549 cell line (ECACC:86012804) is derived from the human lung epithelial cells from a carcinoma. This cell line contains functional endogenous GR and is stimulated by Tumour Necrosis Factor (TNF) to produce IL-8.
In this assay TNF was used to stimulate NFkB activity in a cell line that expressed endogenous GR. The ability of NFkB to induce IL-8 gene transcription could then be repressed by GR in a ligand dependent manner and, therefore, used to measure transrepression.
COS7 cells were transfected with 3 μg NRE-Luc per 10 cm tissue culture dish. The cells were plated out in to 24 well plates after transfection and left for 18 hours to recover before the steroids of FIGS. 1 and 2A were added. After incubation for 3 hours with the steroids, TNF was added to the samples and after another 15 hours an IL-8 assay (R&D systems) was performed on the cell supernatants according to the manufacturers instructions. Briefly, triplicates of 100 μl of a 1:2 dilution of cell supernatant and 100 μl of a known dilution series of IL-8 were added to the wells of a microtitre plate coated with a monoclonal IL-8 antibody, the samples were incubated with a polyclonal biotinylated IL-8 antibody for 1 hour at room temperature and washed. Streptavidin horse radish peroxidase solution was then added to all wells and incubated for 30 mins before being washed. Tetramethyl benzidine (TMB; a chromagen) was added to all the wells and incubated in the dark for 10 mins, the reaction was stopped by the addition of H2SO4 and the absorbance of each well was read on a spectrophotometer using 450 nm as the primary wavelength. Regression analysis was performed on the standard data and the unknowns were expressed as pg/ml of IL-8 in comparison to the standards.

endogenous GR = biological target: T1, endogenous GR (Homo sapiens, UniProt P04150); experiment: Transrepression assay using endogenous GR in the A549 lung epithelial cell line (TNF, NRE luciferase); format: cell-based; settings: compound G at 1, 10, 100 and 500 nM
T1 construct: This cell line contains functional endogenous GR; endogenous in cells; host or cells: A549
T1 sequence (P04150 1-777): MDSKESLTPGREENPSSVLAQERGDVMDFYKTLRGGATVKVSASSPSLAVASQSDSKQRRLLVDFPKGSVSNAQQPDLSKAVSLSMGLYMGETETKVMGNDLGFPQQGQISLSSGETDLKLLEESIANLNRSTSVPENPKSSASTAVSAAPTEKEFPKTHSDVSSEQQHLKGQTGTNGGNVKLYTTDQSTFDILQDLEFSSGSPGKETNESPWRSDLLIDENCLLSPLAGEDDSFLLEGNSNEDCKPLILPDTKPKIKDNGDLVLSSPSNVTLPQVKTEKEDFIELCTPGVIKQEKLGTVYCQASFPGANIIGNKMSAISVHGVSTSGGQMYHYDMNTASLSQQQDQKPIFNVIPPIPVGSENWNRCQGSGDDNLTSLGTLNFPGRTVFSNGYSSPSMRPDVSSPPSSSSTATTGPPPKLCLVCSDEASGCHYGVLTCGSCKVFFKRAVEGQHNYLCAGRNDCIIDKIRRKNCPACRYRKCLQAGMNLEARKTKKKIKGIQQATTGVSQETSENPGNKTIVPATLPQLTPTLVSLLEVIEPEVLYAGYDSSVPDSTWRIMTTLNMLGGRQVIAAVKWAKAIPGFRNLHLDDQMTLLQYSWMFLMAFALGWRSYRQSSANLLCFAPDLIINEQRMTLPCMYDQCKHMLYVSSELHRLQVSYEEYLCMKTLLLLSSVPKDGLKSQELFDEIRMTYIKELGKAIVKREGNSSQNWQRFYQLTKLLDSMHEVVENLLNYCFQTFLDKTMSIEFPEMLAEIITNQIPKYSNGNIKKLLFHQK
Description: as §1
In this assay TNF was used to stimulate NFkB activity in a cell line that expressed endogenous GR. The ability of NFkB to activate an NRE “driving” a luciferase reporter gene could then be repressed by GR in a ligand dependent manner and, therefore, used to measure transrepression.
COS7 cells were transfected with 3 μg NRE-Luc per 10 cm tissue culture dish. The cells were plated out in to 24 well plates after transfection and left for 18 hours to recover before the steroids of FIGS. 1 and 2 were added. Next TNF was added to the samples after 3 hours incubation with the steroids and after another 15 hours the cells were lysed and a luciferase assay was performed.

GFP tagged GR = biological target: T2, GFP tagged GR (Homo sapiens, UniProt P04150); experiment: Nuclear translocation using GFP tagged GR and fluorescent microscopy; format: cell-based; settings: COS 7 cells, 100 nM, 3 hours
T2 construct: expressed in transfected cells; host or cells: COS 7
T2 sequence (P04150 1-777): T1 sequence (P04150 1-777)
Description: The un-liganded GR is present in the cytoplasm of cells in association with heat shock proteins (HSPs). The binding of an agonist ligand to the GR causes dissociation from the HSPs and translocation to the nucleus. A type I antagonist ligand can bind to the GR but cannot translocate to the nucleus. A type II antagonist ligand can bind to the GR, translocate to the nucleus and bind to DNA but cannot activate gene transcription. Therefore, the ability of a putative ligand to translocate the GR helps to determine its status as an agonist or antagonist. COS 7 cells were transfected with 5 μg of a green fluorescent protein (GFP) tagged GR expression vector. After transfection, these cells were split into 6 well plates with sterile microscope cover slips placed at the bottom of each well. The cells were allowed to recover for 18 hours and then the medium was removed, the cells were washed three times with sterile phosphate buffered saline (PBS) and new medium was added containing charcoal stripped FCS in place of normal FCS. The cells were incubated for 18 hours and then the steroids of FIGS. 1 and 2A were added to make a final concentration of 100 nM. The cells were incubated for a further 3 hours and then the medium was aspirated and the cells were fixed to the glass coverslips by adding ice cold methanol and incubating at −20° C. for 30 mins. The coverslips with the transfected cells fixed to them were mounted on slides and the cellular localisation of the GFP tagged GR was analysed by fluorescent microscopy using an Axioplan 2 microscope (Zeiss, Oberkochen, Germany) and KS300 v3.0 analysis software (Zeiss).

glucocorticoid receptor = biological target: T3, glucocorticoid receptor (Homo sapiens, UniProt P04150); experiment: Transrepression assay using artificially expressed glucocorticoid receptor and P65 in the COS 7 cell line (NRE luciferase); format: cell-based; parameters: expressed in transfected cells; host or cells: COS 7 (African green monkey kidney, deficient in endogenous GR); settings: 1, 10 and 100 nM
T3 sequence (P04150 1-777): T1 sequence (P04150 1-777)
Procedure: All transfections were performed using lipofectamine plus (Gibco BRL), according to the manufacturers' instructions, as previously described^1. Briefly, all cells were seeded at 5×10^5 per 10 cm tissue culture plate 18 hours before transfection, the next day the relevant plasmids were mixed with serum free medium and “Plus” reagent (Gibco BRL) and incubated for 15 mins, lipofectamine reagent was added and the mix was incubated for a further 15 mins, this mix was added to the cells on serum free medium in the 10 cm tissue culture plates and left for 3 hours, the cells were then trypsinised and divided into 24 well plates, the cells were left to recover overnight and were treated with steroid for 16 hours before harvest. All experiments were performed from one transfection in triplicate and on separate occasions with similar results.
The firefly luciferase gene catalyses the production of light from the substrate luciferin. When plasmid constructs containing this gene are transfected into cell lines the activity of the gene can be assessed by the intensity of the luminesence. The luciferase assay yields luminescence through an ATP-dependent oxidation of luciferin the amount of light produced can be measured by a luminometer and is a measure of gene activity (Davis, 1996). Light intensity was measured in a Luminometer (LB 9501, Berthold). The light intensity should be proportional to luciferase concentration in the range of 10^−16M (10 μg/L) to 10^−8M (1 mg/L). To measure the luminescence of the treated cells 150 μl of 1× reporter lysis buffer (RLB: 25 mM Tris phosphate pH7.8, 10 mM MgCl2, 15% Glycerol, 1% Triton, 1 mM EDTA) was added to the 24 well plates to lyse the cells and incubated at room temperature for 30 mins whilst being shaken. Then 100 μl of the room temperature cell extract were mixed with 100 μl of room temperature Luciferase Assay Reagent (LAR: 1 mM ATP, 0.3 mM D-Luciferin, 66% RLB). This reaction was mixed in a luminometer (LB 9501, Berthold) and the light produced was measured for a period of 5 seconds.
To perform this assay the GR and p65 were artificially expressed in a cell line lacking GR and deficient in endogenous P65. The ability of P65 to activate an NFkB response element (NRE) “driving” a luciferase reporter gene could then be repressed by GR in a ligand dependent manner and, therefore, used to measure transrepression.
COS7 cells were transfected with 1 μg pcDNA3-GR and 3 μg NRE-Luc and 200 ng p65 per 10 cm tissue culture dish. The cells were plated out in to 24 well plates after transfection and left for 18 hours to recover before the steroids of FIGS. 1 and 2A were added. After another 18 hour incubation the cells were lysed and a luciferase assay was performed.

[1] = tested on: tyrosine amino transferase (TAT); experiment: Quantitation of tyrosine amino transferase (TAT) in the livers of air pouch mice; format: in vivo; settings: 3 μg i.p., FIG. 22
Procedure: (§2) At time 0, mice received either 0.5 ml of zymosan (1 mg) (group A, B, C) injected locally into the air-pouch. Group D and E were left untreated at this time-point. At 4 h post-zymosan the animals were placed in CO2. Air-pouches were then washed with 2 ml of PBS containing 3 mM EDTA, and livers were recovered and snap frozen for later analysis.
Quantitation of Tyrosine Amino Transferase (TAT) Protein in the Livers: In this method a colourimetric approach is used to quantitate TAT activity. The TAT enzyme catalyses the following reaction: L-tyrosine+2-oxoglutarate⇄4-hydroxyphenylpyruvate (pHPP)+L-glutamate
This reaction also requires pyridoxal phosphate (PLP) as a co-factor. Strong alkali conditions can then be used to convert pHPP to p-hydroxybenzaldehyde (pHBA) and oxalate. The amount of pHBA can then be assessed by measuring its absorbance at 331 nm (extinction coefficient 19,900 M^−1cm^−1) this figure is then assumed to be directly proportional to TAT activity. Livers were homogenized and the cells were stored on ice. […]
For each reaction a control reaction was set up without the ketoglutarate. […] The samples were incubated at room temperature for a further 30 mins and then the absorbance of each sample was assessed at 331 nm on a spectrophotometer (Ultrospec III, Pharmacia).

[2] = tested on: zymosan induced neutrophil migration; experiment: Air pouch model of inflammation, zymosan induced neutrophil migration; format: in vivo, mice
Procedure: Male outbred Swiss albino mice (18-20 g body weight) were purchased from Bantin and Kingman (T.O. strain; Hull, Humberside) and maintained on a standard chow pellet diet with tap water ad libitum and a 12:00 h light/dark cycle. All animals were housed for 3 days prior to experimentation to allow body weight to reach 20-22 g. On the day of experiment mice ranged from 24-26 g.
Air-pouches were formed on the back of mice by air injection (2.5 ml s.c.) on day 0 and day 3 (Perretti and Flower, 1993).
Zymosan A was allowed to defrost at room temperature for 30 min prior to being added to sterile PBS at a concentration of 2 mg/ml forming a homogenous suspension.
as §2
The number of migrated leukocytes (≧90% polymorphonuclear leukocytes, PMN) was determined in the lavage fluid from each air-pouch, by taking an aliquot (100 μl) of the lavage fluid and diluting 1:10 in Turk's solution (0.01% crystal violet in 3% acetic acid). The samples were then vortexed and 10 μl of the stained cell solution were placed in a Neubauer haematocymometer and neutrophils numbers counted using a light microscope (Olympus B061).
Neutrophil numbers were compared between groups using ANOVA plus the Bonferroni test. TAT levels were compared using a t-test.

Structure (SMILES)	repression of IL-8 production after TNF activation (IL-8)	repression of TNF activation of A549 cells (NRE reporter gene) (endogenous GR)	nuclear translocation of the GFP tagged glucocorticoid receptor (GFP tagged GR)	repression of P65 stimulation of an NFkB response element compared with dexamethasone (glucocorticoid receptor)	liver TAT level compared with vehicle control groups [1]	Neutrophils (10^6 per mouse) ([2]; 3 μg i.p. at -1 h, Zymosan 1 mg into air-pouch, 4 h time-point, mean ± S.E. of 8 mice)	reduction of neutrophil accumulation ([2]; 3 μg i.p., zymosan air pouch, 4 h) [%]
CCCNC(=O)OCC(=O)C1(O)C(C)CC2C3CCC4=CC(=O)C=CC4(C)C3(F)C(O)CC21C (stereo not shown) [Compound H]	exhibited transrepression	exhibited transrepression	caused nuclear localisation	less potent than dexamethasone but produced the same maximal response at 100 nM	–	–	–
C[C@@H]1C[C@H]2[C@@H]3CCC4=CC(=O)C=C[C@]4(C)[C@@]3(F)[C@@H](O)C[C@]2(C)[C@@]1(O)C(=O)CO [Dexamethasone, reference compound]	–	–	–	–	further elevation of TAT	6.23 ± 0.44 * 10^6 per mouse	~30
